Data: patent US5304633A, “Fragments of lactoferrin having potent antimicrobial activity” (priority 1990, dated 1994)
Like-named read-outs stand apart in the source and are kept apart here. Positions of bridges follow the written chain, without caps; N, C: chain ends. Chains are numbered I, II in the order given. No end group written: not given here.

Assays:
various fungi = details: 20 h
[1] = tested on: gram-positive bacteria and gram-negative bacteria, including aerobic and anaerobic bacteria and yeast; assay: Antimicrobial spectrum, MIC in liquid medium (Experiment 12), overall; assay type: cell-based; details: many types of gram-positive and gram-negative bacteria and yeast; peptone or PYG medium
Protocol: The various microorganisms shown in Table 3 and in Table 4 were incubated for 16 to 20 hours in 2 ml of peptone medium which consisted of 1% Bactopeptone (manufactured by Difco Laboratory Co.), or in 2 ml of PYG medium which consisted of 1% Bactopeptone (manufactured by Difco Laboratory Co.), 1% glucose and 0.05% yeast extract. The antimicrobial peptide was added to each medium at various ratios of 0 μg/ml to 60 μg/ml. Standard bacterial strains of various microorganisms in the logarithmic phase were inoculated into the various media at a cell concentration of 10^6 /ml and incubated at 37° C., with the exception of the bacterial strains mentioned in the footnotes of the tables. The growth of the various microorganisms was studied by measuring the light absorption at 660 nm.

Escherichia coli = assay type: cell-based; details: 16 h
Protocol: Bactocasitone (manufactured by Difco Laboratory Co.) was dissolved at a concentration of 1% in purified water, the pH was adjusted to 7.0 with 1M sodium hydroxide, the solution was sterilized at 115° C. for 15 minutes and a basal medium (liquid medium) was prepared. Each sample was dissolved at a concentration of […] in purified water, sterilization was performed by using a sterilization filter (manufactured by […] Co.) and test media, prepared by adding samples at concentrations of 1, 5, 10, 50 and 100 ppm to the basal medium, as well as a control medium with no added samples, were prepared. […] wherein A is the difference in turbidity of the test culture medium (the difference between the turbidity of the test culture medium after 16 hours of culture and the turbidity of the test culture medium before the culturing) and B is the turbidity of the control medium (the difference between the turbidity of the control culture medium after 16 hours of culture and the turbidity of the control culture medium before the culturing). The percentages of the rate of inhibition of proliferation are not in weight (same hereinafter).

Row | Compound | concentration showing antimicrobial activity (MIC, summary of Table 7) (various fungi) | concentration showing antimicrobial activity (MIC, summary of Tables 3 and 4) [1] | inhibitory rate (rate of inhibition of E. coli proliferation) (Escherichia coli; 1 ppm) [%] | inhibitory rate (rate of inhibition of E. coli proliferation) (Escherichia coli; 5 ppm) [%] | inhibitory rate (rate of inhibition of E. coli proliferation) (Escherichia coli; 10 ppm) [%] | inhibitory rate (rate of inhibition of E. coli proliferation) (Escherichia coli; 50 ppm) [%] | inhibitory rate (rate of inhibition of E. coli proliferation) (Escherichia coli; 100 ppm) [%]
1 | CC[C@H](C)[C@@H]1NC(=O)[C@H](CO)NC(=O)[C@@H]2CCCN2C(=O)[C@H](C)NC(=O)CNC(=O)[C@H](CC(C)C)NC(=O)[C@H](CCCCN)NC(=O)[C@H](CCCCN)NC(=O)[C@H](CCSC)NC(=O)[C@H](CCCNC(=N)N)NC(=O)[C@H](Cc2c[nH]c3ccccc23)NC(=O)[C@H](CCC(N)=O)NC(=O)[C@H](Cc2c[nH]c3ccccc23)NC(=O)[C@H](CCCNC(=N)N)NC(=O)[C@H](CCCNC(=N)N)NC(=O)[C@@H](NC(=O)[C@H](CCCCN)NC(=O)[C@@H](N)Cc2ccccc2)CSSC[C@@H](C(=O)N[C@H](C(=O)N[C@@H](CCCNC(=N)N)C(=O)N[C@@H](CCCNC(=N)N)C(=O)N[C@@H](C)C(=O)N[C@@H](Cc2ccccc2)C(=O)O)C(C)C)NC(=O)[C@H]([C@@H](C)O)NC1=O [antimicrobial peptide of Example 1] | less than 45 μg/ml | less than 45 μg/ml |  |  |  |  | 
2 | I: VSQPEATKCFQWQRNMRKVRGPPVSCIKRDSPIQCI / II: GRRRRSVQWCA (disulfide I:9-I:26, I:35-II:10) [antimicrobial peptide of Example 3] |  |  | 3 | 86 | 100 | 100 | 100
